What all share (assay): NCI anticancer screen, dose series, 48 h
The subject of test [1] is 786-0 renal.
Test [2] relates to BT-549 breast.
Test [3] concerns CCRF-CEM leukemia.
Test [4] deals with EKVX NSCLC.
Test [5] deals with HCT-15 colon.
Test [6] concerns NCI-H522 lung.
Test [7] concerns OVCAR-8 ovarian.
Test [8] deals with PC-3 prostate.
In test [9] the test system is SK-MEL-28 melanoma.
Test [10] relates to UO-31 renal.

The structures appear in SMILES notation.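 Five compound concentrations were applied to cells in 96-well plates for 48 hours; endpoints were derived by simple linear interpolation of the resulting dose-response curve. Here, GI50 denotes the concentration required for 50% inhibition of growth. TGI: concentration producing complete growth inhibition.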

As for `ClC1=C(Cl)C(Cl)(C2(Cl)C(Cl)=C(Cl)C(Cl)=C2Cl)C(Cl)=C1Cl`, the GI50 in test [1] is 0.242 µM; in [2], 1.68 µM; in test [3], 0.166 µM; in test [4] it was 1.52 µM; in test [5] it was 0.214 µM; in test [6] it was 0.16 µM. Also, the GI50 in test [7] was 0.365 µM; in [8], 0.975 µM; in test [9], 0.279 µM; in [10], 0.17 µM. Besides, the TGI stood at 0.746 µM in test [1]; 3.67 µM in test [2]; 0.496 µM in test [3]; 3.88 µM in test [4]; 0.552 µM in test [5]; 0.341 µM in [6]. The TGI in test [7] was found to be 3.79 µM; in [8], 2.95 µM; in test [9], 0.847 µM; in test [10], 0.445 µM.

For `Sc1cccc2cccnc12`, the GI50 is 1.22 µM in test [1]; 1.46 µM in test [2]; 0.392 µM in [3]; 1.31 µM in [4]; 0.427 µM in test [5]; 2.13 µM in [6]. Further, the GI50 was 0.537 µM in test [7], 0.577 µM in test [8], 1.15 µM in test [9] and 0.616 µM in [10]. The TGI in test [1] amounted to 14.3 µM; in test [2], 12.4 µM; in test [3], 24.5 µM; in [4] it was 12.9 µM; in test [5], 14.4 µM; in [6], 5.66 µM. Also, the TGI in test [7] is 15.3 µM; in [8], 13.1 µM; in [9] it was 16.2 µM; in [10], 11.9 µM.

For `CCOC(=O)c1noc2c1CCc1c-2cn(Cc2ccc(OC)cc2)c1-c1cc(OC)c(OC)c(OC)c1`, the GI50 was 3.65 µM in test [1]; 1.47 µM in test [2]; 1.04 µM in test [3]; 3.92 µM in test [4]; 0.499 µM in test [5]; 0.369 µM in test [6]. Further, the GI50 is 3.04 µM in test [7], 2.9 µM in test [8], 1.9 µM in [9] and 3.44 µM in [10]. In addition, the TGI is greater than 100 µM in [1]; 35.1 µM in test [2]; greater than 100 µM in test [3]; greater than 100 µM in test [4]; greater than 100 µM in test [5]; greater than 100 µM in [6]. The TGI in test [7], in test [8], in [9] and in test [10] was greater than 100 µM in each case.

`O=c1[nH]c2ccccc2n1C1CCNCC1`: the GI50 in [1], in test [2], in test [3], in test [4], in test [5] and in [6] was greater than 100 µM throughout. For the same compound, the GI50 in test [7], in test [8], in test [9] and in test [10] was greater than 100 µM each time. Moreover, the TGI in test [1], in test [2], in [3], in test [4], in test [5] and in test [6] was greater than 100 µM in each case. Besides, the TGI in [7], in [8], in test [9] and in [10] was greater than 100 µM throughout.

`O=C(O)c1ccc(N(/C=C/C(=O)C(F)(F)F)Cc2ccc(Cl)cc2)cc1`: the GI50 in test [1] is 31.4 µM; in [2] it was 38.7 µM; in test [3], 25.8 µM; in test [4], 19.6 µM; in test [5] it was 21.4 µM; in test [6] it was 19.9 µM. For the same compound, the GI50 was 26.1 µM in [7], 37.9 µM in test [8], 32.9 µM in test [9] and 1.19 µM in test [10]. Also, the TGI in test [1] was greater than 100 µM; in test [2] it was 67 µM; in test [3], greater than 100 µM; in test [4], 47.9 µM; in test [5] it was 59.7 µM; in test [6], 61.9 µM. Moreover, the TGI in test [7] is 78.4 µM; in test [8], greater than 100 µM; in test [9], 84 µM; in test [10] it was 15.7 µM.

Consider `O=C(N/N=C/c1ccc(Cl)cc1)c1ccc(NC(=O)c2ccccn2)cc1`, for which the GI50 was 20.7 µM in test [1]; 25 µM in test [2]; greater than 100 µM in test [3]; 48.7 µM in test [4]; 42.1 µM in test [5]; 31.5 µM in test [6]. In addition, the GI50 is 35.7 µM in test [7], 17 µM in test [8], 33 µM in test [9] and 11.2 µM in [10]. Moreover, the TGI in test [1] was 59.6 µM; in test [2] it was 99.6 µM; in test [3], greater than 100 µM; in [4] it was greater than 100 µM; in test [5] it was greater than 100 µM; in [6], greater than 100 µM. For the same compound, the TGI was greater than 100 µM in test [7], greater than 100 µM in test [8], greater than 100 µM in [9] and 38.2 µM in test [10].

Turning to `COc1cc2c(c3oc(-c4ccc(O)cc4)c(O)c(=O)c13)CCC(C)(C)O2`, the GI50 in test [1] is 0.0788 µM; in test [2], 0.279 µM; in test [3], 0.359 µM; in test [4] it was 0.308 µM; in [5], 0.169 µM; in test [6] it was 0.0776 µM. For the same compound, the GI50 in test [7] was 0.292 µM; in [8] it was 1.17 µM; in test [9], 0.21 µM; in test [10] it was 0.0281 µM. The TGI was 0.214 µM in test [1]; 0.836 µM in [2]; greater than 100 µM in [3]; 0.392 µM in [5]; 0.232 µM in [6]; 0.856 µM in [7]. For the same compound, the TGI in test [8] was greater than 100 µM; in test [9] it was 0.93 µM; in [10], 0.075 µM.

The values are drawn from PubChem BioAssay (NCI).
